Here are results for 1 compound from patent US20170205426A1, “RAPID MASS SPECTROMETRY METHODS FOR ANTIMICROBIAL SUSCEPTIBILITY TESTING USING TOP-DOWN MASS SPECTROMETRY” (priority 2016, published 2017).

The subject of one experiment is KPC-2. The experiment in a line: Bottom-up mass spectrometry sequence coverage of KPC-2 in K. pneumoniae cultures induced with ertapenem. Type of experiment: cell-based, Klebsiella pneumoniae. The conditions noted are these: for KPC-2 Sequence Coverage: induced with 0.5 mM ertapenem. How it is done: (§1) In some embodiments, a sample of the microbial culture or biological sample is exposed to conditions that induce antimicrobial resistance in the microorganisms prior to testing. In other embodiments, a sample of the microbial culture or biological sample is tested without intentionally inducing antimicrobial resistance in the microorganisms. In certain embodiments, many resistance mechanisms may not have to be induced in order to detect the target proteins of interest. For example, we have observed that the production of PBP2a from MRSA samples varies in its baseline expression without induction. In examining expression of carbapenem-resistant Enterobacteriaceae (CRE)-related resistances, several strains of Klebsiella pneumoniae that contained different combinations of the resistance marker beta-lactamase were tested to determine the effect on detection for induced and non-induced samples. Table 1 lists various resistant and susceptible strains of K. pneumoniae which were tested with 0.5 mM of ertapenem as an inducer. In these experiments, bottom-up mass spectrometry was used to measure sequence coverage of two representative beta-lactamases, KPC-2 and CTX-M15. The percent sequence coverage observed is an approximate measure of the amount of a given protein present in any given extract. The higher the percent sequence coverage observed, the higher the level of that given protein in an extract.

A further experiment relates to CTX-M15. Kind of experiment: Bottom-up mass spectrometry sequence coverage of CTX-M15 in K. pneumoniae cultures induced with ertapenem. Type of experiment: cell-based, Klebsiella pneumoniae. The conditions noted are these: for CTX-M15 Sequence Coverage: induced with 0.5 mM ertapenem. On the procedure: as §1
Where [1] appears, read: variety of K. pneumoniae strains, 0.5 mM ertapenem as inducer.

Consider `C[C@@H](O)[C@H]1C(=O)N2C(C(=O)O)=C(S[C@@H]3CN[C@H](C(=O)Nc4cccc(C(=O)O)c4)C3)[C@H](C)[C@H]12` [ertapenem], for which the “KPC-2 Sequence Coverage” value with KPC-2 (strain 13883 (Susceptible)) is “not detected”; in the experiment on KPC-2 (strain BAA-1903 (Resistant)), 73% ± 0%; in the experiment on KPC-2 (strain BAA-1905 (Resistant)), 85% ± 5%; with KPC-2 (strain BAA-2473 (Resistant)) it was “not detected”; in the experiment on KPC-2 (strain BAA-2578 (Resistant)), “not detected”. Also, the “percent sequence coverage of KPC-2, induced versus non-induced” value in the experiment on KPC-2 (setting [1]) is “the same regardless of induction”. Further, the “CTX-M15 Sequence Coverage” value was “not detected” in the experiment on CTX-M15 (strain 13883 (Susceptible)); “not detected” with CTX-M15 (strain BAA-1903 (Resistant)); “not detected” in the experiment on CTX-M15 (strain BAA-1905 (Resistant)); 70% ± 0% in the experiment on CTX-M15 (strain BAA-2473 (Resistant)); 60% ± 2% in the experiment with CTX-M15 (strain BAA-2578 (Resistant)). For the same compound, the “percent sequence coverage of CTX-M15, induced versus non-induced” value with CTX-M15 (setting [1]) is “the same regardless of induction”.
